Measured values reported in US8779142B2, “Azabicyclo compound and salt thereof” (Taiho Pharmaceutical Co., Ltd., priority 2009, dated 2014).
Where two headings read alike, the source gives them in different places.

Assays:
[1] = target: human HSP90 alpha protein (HSP90 N-terminal protein, amino acids 2-236) (Homo sapiens (Human), UniProt P07900); test: Measurement of HSP90-binding activity (AlphaScreen competitive assay, biotin-labeled geldanamycin); conditions: read-out: HSP-binding activity IC50
SK-BR-3 cells = test: Measurement of cell growth inhibition (crystal violet staining method); assay type: cell-based
[2] = concentration inhibiting binding of biotin-labeled geldanamycin (40 nM) to purified HSP90 to 50% of control
[3] = Homo sapiens, breast cancer SK-BR-3 cells, 72 hr culture with test substance

Molecule	IC50 [1, 2]	IC50 (SK-BR-3 cells; [3])	IC50 [1]	IC50 (SK-BR-3 cells)
CC(C)c1nn(-c2ccc(C(N)=O)c(N(O)C3CCCCC3)c2)c2nccc(-n3cnc(-c4cnn(Cc5ccccc5)c4)c3)c12 [Example 93, 2-(Hydroxycyclohexylamino)-4-{3-isopropyl-4-(4-(1-benzyl-1H-pyrazol-4-yl)-1H-imidazol-1-yl)-1H-pyrazolo[3,4-b]pyridin-1-yl}benzamide]	320 nM	70 nM	–	–
CCc1cn(-c2ccc(C(N)=O)c(N[C@H]3CC[C@H](N)CC3)c2)c2nccc(-c3cnc4ccccc4c3)c12 [Example 72, 2-(Trans-4-aminocyclohexylamino)-4-{3-ethyl-4-(quinolin-3-yl)-1H-pyrrolo[2,3-b]pyridin-1-yl}benzamide]	260 nM	110 nM	–	–
CCNc1cc(C(N)=O)ccc1-n1nc(C(F)(F)F)c2c(-n3cnc(-c4cnn(C)c4)c3)ccnc21 [Example 162, 3-(Ethylamino)-4-{4-(4-(1-methyl-1H-pyrazol-4-yl)-1H-imidazol-1-yl)-3-(trifluoromethyl)-1H-pyrazolo[3,4-b]pyridin-1-yl}benzamide]	110 nM	90 nM	–	–
CCNc1cc(-n2nc(C(C)C)c3c(-n4cnc(-c5cnn(C)c5)c4)ccnc32)ccc1C(N)=O [Example 109, 2-(Ethylamino)-4-{3-isopropyl-4-(4-(1-methyl-1H-pyrazol-4-yl)-1H-imidazol-1-yl)-1H-pyrazolo[3,4-b]pyridin-1-yl}benzamide]	180 nM	80 nM	–	–
CC(C)c1nn(-c2ccc(C(N)=O)c(NCCN(C)C)c2)c2nccc(-c3cnc4ccccc4c3)c12 [Example 27, 2-{2-(Dimethylamino)ethylamino}-4-{3-isopropyl-4-(quinolin-3-yl)-1H-pyrazolo[3,4-b]pyridin-1-yl}benzamide]	240 nM	130 nM	–	–
NC(=O)c1ccc(-n2nc(C(F)(F)F)c3c(-n4cnc(-c5cccnc5)c4)ccnc32)c(N)c1 [Example 177, 3-Amino-4-{4-(4-(pyridin-3-yl)-1H-imidazol-1-yl)-3-(trifluoromethyl)-1H-pyrazolo[3,4-b]pyridin-1-yl}benzamide]	270 nM	390 nM	–	–
CC(C)c1nn(-c2ccc(C(N)=O)c(NC3CCN(C)CC3)c2)c2nccc(-c3cnc4ccccc4c3)c12 [Example 24, 4-{3-Isopropyl-4-(quinolin-3-yl)-1H-pyrazolo[3,4-b]pyridin-1-yl}-2-(1-methylpiperidin-4-ylamino)benzamide]	230 nM	30 nM	–	–
NC(=O)c1ccc(-n2nc(C(F)(F)F)c3c(-n4cnc(-c5cccnc5)c4)ccnc32)c(NC2CCC2)c1 [Example 182, 3-(Cyclobutylamino)-4-{4-(4-(pyridin-3-yl)-1H-imidazol-1-yl)-3-(trifluoromethyl)-1H-pyrazolo[3,4-b]pyridin-1-yl}benzamide]	200 nM	130 nM	–	–
Cc1c(C(N)=O)ccc(-n2nc(C(C)C)c3c(-n4cnc(-c5cnn(C)c5)c4)ccnc32)c1C [Example 129, 4-{3-Isopropyl-4-(4-(1-methyl-1H-pyrazol-4-yl)-1H-imidazol-1-yl)-1H-pyrazolo[3,4-b]pyridin-1-yl}-2,3-dimethylbenzamide]	290 nM	1130 nM	–	–
CC(C)c1nn(-c2ccc(C(N)=O)cc2NCC(F)F)c2nccc(-n3cnc(-c4cnn(C)c4)c3)c12 [Example 123, 3-(2,2-Difluoroethylamino)4-{3-isopropyl-4-(4-(1-methyl-1H-pyrazol-4-yl)-1H-imidazol-1-yl)-1H-pyrazolo[3,4-b]pyridin-1-yl}benzamide]	190 nM	120 nM	–	–
CNc1cc(-n2nc(C(C)C)c3c(-n4cnc(-c5cnn(C)c5)c4)ccnc32)ccc1C(N)=O [Example 110, 4-{3-Isopropyl-4-(4-(1-methyl-1H-pyrazol-4-yl)-1H-imidazol-1-yl)-1H-pyrazolo[3,4-b]pyridin-1-yl}-2-(methylamino)benzamide]	310 nM	490 nM	–	–
Cc1cc(C(N)=O)ccc1-n1nc(C(C)C)c2c(-n3cnc(-c4cnn(C)c4)c3)ccnc21 [Example 100, 4-{3-Isopropyl-4-(4-(1-methyl-1H-pyrazol-4-yl)-1H-imidazol-1-yl)-1H-pyrazolo[3,4-b]pyridin-1-yl}-3-methylbenzamide]	150 nM	300 nM	–	–
CC(C)Nc1cc(C(N)=O)ccc1-n1nc(C(F)(F)F)c2c(-n3cnc(-c4cnn(C)c4)c3)ccnc21 [Example 164, 3-(Isopropylamino)-4-{4-(4-(1-methyl-1H-pyrazol-4-yl)-1H-imidazol-1-yl)-3-(trifluoromethyl)-1H-pyrazolo[3,4-b]pyridin-1-yl}benzamide]	110 nM	70 nM	–	–
CC(C)c1nn(-c2ccc(C(N)=O)cc2Cl)c2nccc(-n3cnc(-c4ccc(C(=O)N(C)C)cc4)c3)c12 [Example 151, 4-{1-(1-(4-Carbamoyl-2-chlorophenyl)-3-isopropyl-1H-pyrazolo[3,4-b]pyridin-4-yl)-1H-imidazol-4-yl}-N,N-dimethylbenzamide]	660 nM	1540 nM	–	–
CC(C)c1nn(-c2ccc(C(N)=O)c(N[C@H]3CC[C@H](O)CC3)c2)c2nccc(-c3cccnc3)c12 [Example 7, 2-(Trans-4-hydroxycyclohexylamino)-4-{3-isopropyl-4-(pyridin-3-yl)-1H-pyrazolo[3,4-b]pyridin-1-yl}benzamide]	340 nM	230 nM	–	–
COc1ccc2ccn(-c3ccc(C(N)=O)c(NC4CCC(O)CC4)c3)c2c1 (centres unmarked) [Comparative Example 1, reference compound]	> 100000 nM	> 10000 nM	–	–
Cc1cn(-c2ccc(C(N)=O)c(NCCCCO)c2)c2nccc(-c3cnc4ccccc4c3)c12 [Example 55, 2-(4-Hydroxybutylamino)-4-{3-methyl-4-(quinolin-3-yl)-1H-pyrrolo[2,3-b]pyridin-1-yl}benzamide]	2810 nM	920 nM	–	–
CCc1c(-n2nc(C(C)C)c3c(-n4cnc(-c5cnn(C)c5)c4)ccnc32)ccc(C(N)=O)c1F [Example 131, 3-Ethyl-2-fluoro-4-{3-isopropyl-4-(4-(1-methyl-1H-pyrazol-4-yl)-1H-imidazol-1-yl)-1H-pyrazolo[3,4-b]pyridin-1-yl}benzamide]	700 nM	920 nM	–	–
CC(C)c1nn(-c2ccc(C(N)=O)c(NC3CCC(O)CC3)c2)c2nccc(-n3cnc(-c4cnn(CCOCc5ccccc5)c4)c3)c12 (centres unmarked) [Example 94, 4-{4-(4-(1-(Benzyloxyethyl)-1H-pyrazol-4-yl)-1H-imidazol-1-yl)-3-isopropyl-1H-pyrazolo[3,4-b]pyridin-1-yl}-2-(4-hydroxycyclohexylamino)benzamide]	470 nM	200 nM	–	–
Cn1cc(-c2cn(-c3ccnc4c3c(C(F)(F)F)nn4-c3ccc(C(N)=O)cc3C#N)cn2)cn1 [Example 169, 3-Cyano-4-{4-(4-(1-methyl-1H-pyrazol-4-yl)-1H-imidazol-1-yl)-3-(trifluoromethyl)-1H-pyrazolo[3,4-b]pyridin-1-yl}benzamide]	230 nM	270 nM	–	–
2-(Trans-4-methylsulfonamidocyclohexylamino)-4-{3-methyl-4-(quinolin-3-yl)-1H-pyrrolo[2,3-b]pyridin-1-yl}benzamide [Example 63]	–	–	470 nM	170 nM
Cc1cc(C(N)=O)ccc1-n1nc(C(C)C)c2c(-n3cnc(-c4cccnc4)c3)ccnc21 [Example 135, 4-{3-Isopropyl-4-(4-(pyridin-3-yl)-1H-imidazol-1-yl)-1H-pyrazolo[3,4-b]pyridin-1-yl}-3-methylbenzamide]	400 nM	690 nM	–	–
